Experimental findings from ChEMBL document CHEMBL3745606, “Dissection of N,N-diethyl-N'-phenylpiperazines as α7 nicotinic receptor silent agonists” (Bioorg Med Chem, 2016) are described below.

The target in assay [1] is Neuronal acetylcholine receptor subunit alpha-7 (Homo sapiens) (UniProt P36544). The assay is described as follows: Agonist activity at human alpha7 nAChR expressed in xenopus oocytes assessed as potentiation of PNU-120596-induced PAM-sensitive desensitization at 30 uM by two-electrode voltage clamp electrophysiology relative to acetylcholine. The format is cell-based. (In two-electrode clamp one electrode senses voltage and the other passes current.)
Neuronal acetylcholine receptor subunit alpha-7 (Homo sapiens), sequence (P36544 whole entry): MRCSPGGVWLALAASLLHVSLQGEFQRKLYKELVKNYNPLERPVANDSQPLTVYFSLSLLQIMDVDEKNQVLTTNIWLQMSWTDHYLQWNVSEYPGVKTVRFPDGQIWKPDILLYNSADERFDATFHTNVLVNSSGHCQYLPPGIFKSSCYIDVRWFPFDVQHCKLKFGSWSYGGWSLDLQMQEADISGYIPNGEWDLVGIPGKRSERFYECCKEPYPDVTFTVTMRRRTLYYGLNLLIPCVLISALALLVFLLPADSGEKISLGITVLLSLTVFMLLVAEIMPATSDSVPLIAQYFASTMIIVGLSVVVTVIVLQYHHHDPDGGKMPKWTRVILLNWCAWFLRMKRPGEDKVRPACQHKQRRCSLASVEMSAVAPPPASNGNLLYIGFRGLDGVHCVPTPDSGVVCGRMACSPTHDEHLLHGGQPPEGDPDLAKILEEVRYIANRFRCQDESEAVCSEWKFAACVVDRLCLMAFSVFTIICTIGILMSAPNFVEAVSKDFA

The target is the same in assay [2]. The assay is described as follows: Agonist activity at human alpha7 nAChR expressed in xenopus oocytes assessed as induction of PAM-sensitive desensitization at 30 uM by two-electrode voltage clamp electrophysiology relative to acetylcholine. The format is cell-based.
Assay [3] concerns the target T1, Neuronal acetylcholine receptor; alpha3/beta4 (Homo sapiens) (UniProt P30926+P32297). Put plainly: Partial agonist activity at human alpha3beta4 nAChR expressed in xenopus oocytes assessed as induction of PAM-sensitive desensitization at 30 uM by two-electrode voltage clamp electrophysiology relative to acetylcholine. The format is cell-based.
Assay [4] deals with T2, Neuronal acetylcholine receptor; alpha4/beta2 (Homo sapiens) (UniProt P17787+P43681). The assay is described as follows: Partial agonist activity at alpha4beta2 nAChR (unknown origin) at 100 uM. The format is protein-complex assay.
Assay [5] addresses T2, Neuronal acetylcholine receptor; alpha4/beta2 (Homo sapiens). The assay is described as follows: Antagonist activity at alpha4beta2 nAChR (unknown origin) at 100 uM. The format is protein-complex assay.
Assay [6] has as its target Neuronal acetylcholine receptor subunit alpha-7 (Homo sapiens) (UniProt P36544). The assay is described as follows: Partial agonist activity at human alpha7 nAChR expressed in xenopus oocytes assessed as induction of PAM-sensitive desensitization at 30 uM by two-electrode voltage clamp electrophysiology relative to acetylcholine. The format is cell-based.
The target is the same in assay [7]. The assay is described as follows: Partial agonist activity at human alpha7 nAChR expressed in xenopus oocytes assessed as induction of PAM-sensitive desensitization by measuring ratio of peak current to net charge at 30 uM by two-electrode voltage clamp electrophysiology relative to acetylcholine. The format is cell-based.
For assay [8] the target is unchanged. Put plainly: Partial agonist activity at human alpha7 nAChR expressed in xenopus oocytes assessed as potentiation of PNU-120596-induced PAM-sensitive desensitization at 30 uM by two-electrode voltage clamp electrophysiology relative to acetylcholine. The format is cell-based.
The target in assay [9] is T1, Neuronal acetylcholine receptor; alpha3/beta4 (Homo sapiens). The assay is described as follows: Antagonist activity at human alpha3beta4 nAChR expressed in xenopus oocytes at 100 uM by two-electrode voltage clamp electrophysiology. The format is cell-based.

Calls of active or inactive are those of the source. The calls are words filed in the database; no cut-off is given here.

Take `CC[N+]1(CC)CCN(c2ccc(C(F)(F)F)cc2)CC1`: the Activity in assay [1] is less than 10%. Besides, the fold change (FC) stood at 61.8 in assay [1] and 0.032 in assay [2]. Also, the outcome in assay [3], in [4] and in assay [5] was inactive.

With `CCN1CCN(c2cccc(Br)c2)CC1`, in assay [1], the Activity is less than 10% and the fold change (FC) was 6.9. In addition, the fold change (FC) in assay [2] was determined as 0. In assay [3], the result was inactive.

As to `CC[N+]1(CC)CCN(c2ccc(Br)cc2)CC1`, in assay [1], the Activity was less than 10% and the fold change (FC) worked out at 12.3. The fold change (FC) in [2] worked out at 0.27.

Consider `CC[N+]1(CC)CCN(c2cccc(O)c2)CC1`, for which the fold change (FC) in [6] amounted to 0.283. In assay [7], the Ratio was found to be 0.67. Besides, in assay [8], the Activity was less than 10% and the fold change (FC) is 31.4.

For `CC[N+]1(CC)CCN(c2ccccc2)CC1`, in [1], the Activity is less than 10% and the fold change (FC) was determined as 1.3. Further, the fold change (FC) in assay [2] was determined as 0.002.

Regarding `CC[N+]1(CC)CCC(=Cc2ccccc2)CC1`, in [1], the Activity is less than 10% and the fold change (FC) came out at 9.9. The fold change (FC) in [2] was 0.071. Further, the outcome in assay [3] was inactive.

`CC[N+]1(CC)CCN(c2cccc(F)c2)CC1`: the Activity in [1] was less than 10%. Moreover, the results for the fold change (FC) in assay [1] and in assay [2] were 0.2 and 0.061, respectively. In assay [3], the result was inactive.

On to `CC[N+]1(CC)CCN(c2ccccc2Cl)CC1`, for which the fold change (FC) in [6] worked out at 0.367. For the same compound, in assay [7], the Ratio was determined as 0.63. For the same compound, in assay [8], the Activity was less than 10% and the fold change (FC) was 36.6.

Take `CC[N+]1(CC)CCN(c2cccc(C(F)(F)F)c2)CC1`: the Activity in assay [1] is less than 10%. For the same compound, the fold change (FC) in [1] came to 3.1; in [2] it was 0. Moreover, the outcome in assay [3] was inactive.

As to `CC[N+]1(CC)CCN(c2ccc(C#N)cc2)CC1`, the fold change (FC) in assay [6] amounted to 0.234. The Ratio in assay [7] worked out at 0.43. For the same compound, in assay [8], the Activity was less than 10% and the fold change (FC) was found to be 68.

Take `CC[N+]1(CC)CCN(c2ccccc2C)CC1`: the fold change (FC) in assay [6] amounted to 0.319. In addition, the Ratio in assay [7] worked out at 0.46. Moreover, in assay [8], the Activity was less than 10% and the fold change (FC) is 16.4.

`CCN1CCN(c2ccc(F)cc2)CC1`: in [1], the Activity was less than 10% and the fold change (FC) was 0. In addition, the fold change (FC) in assay [2] was 0. The outcome in assay [3] was inactive.

`CC[N+]1(CC)CCN(c2cccc(C#N)c2)CC1`: in assay [1], the Activity was less than 10% and the fold change (FC) stood at 1.5. Further, in assay [2], the fold change (FC) was found to be 0.022. The outcome in assay [3] was inactive.

`CC[N+]1(CC)CCN(c2cccc(C(N)=O)c2)CC1`: in assay [1], the Activity is less than 10% and the fold change (FC) came out at 50.7. Further, the fold change (FC) in assay [2] stood at 0.056. For the same compound, in [3], the outcome was inactive.

Regarding `CC[N+]1(CC)CCN(c2cccc(OC)c2)CC1`, in [1], the Activity was less than 10% and the fold change (FC) amounted to 0.6. The outcome in [9] was Active. The fold change (FC) in assay [2] was found to be 0.011. Further, the result in assay [3] was inactive.

Regarding `CC[N+]1(CC)CCN(c2ccc3ccccc3c2)CC1`, in assay [6], the fold change (FC) turned out to be 0.143. In addition, the Ratio in assay [7] amounted to 0.71. In addition, in [8], the Activity was less than 10% and the fold change (FC) amounted to 15.9.

Take `CC[N+]1(CC)CCN(c2ccc(Cl)cc2)CC1`: the figures for the fold change (FC) in assay [6] and in [8] were 0.234 and 18.3, respectively. Further, in assay [7], the Ratio was 0.71. Moreover, the Activity in assay [8] was less than 10%.

For the compound `CC[N+]1(CC)CCN(c2cccc(Br)c2)CC1`, in assay [1], the Activity is less than 10%. In addition, the fold change (FC) in assay [1] amounted to 10; in assay [2], 0.04. Besides, the result in assay [3], in assay [4] and in assay [5] was inactive.

With `CC[N+]1(CC)CCN(c2ccc(C)cc2)CC1`, in assay [1], the Activity was less than 10% and the fold change (FC) came out at 3.6. Moreover, the fold change (FC) in assay [2] turned out to be 0.011. Also, the outcome in assay [3] was inactive.

As for `CC[N+]1(CC)CCN(c2ccc(OC)cc2OC)CC1`, the Activity in assay [1] is less than 10%. Also, the fold change (FC) in [1] is 1.1; in assay [2], 0.014.

As for `CC[N+]1(CC)CCN(c2ccc(C(N)=O)cc2)CC1`, in [1], the Activity was less than 10% and the fold change (FC) was found to be 43.9. Besides, the fold change (FC) in [2] came to 0.065. The result in assay [3] was inactive.

On to `CC[N+]1(CC)CCC(Nc2ccccc2)CC1`, for which, in [1], the Activity is less than 10% and the fold change (FC) is 5.6. The fold change (FC) in [2] worked out at 0.002. The outcome in assay [3] was inactive.

Turning to `CC[N+]1(CC)CCN(c2cccc(Cl)c2)CC1`, the Activity in [1] is less than 10%. Moreover, the results for the fold change (FC) in [1] and in assay [2] were 4.2 and 0.02, respectively. In addition, the result in assay [3] was inactive.

On to `CC[N+]1(CC)CCN(c2ccc(F)cc2)CC1`, for which, in [1], the Activity was less than 10% and the fold change (FC) is 22.9. For the same compound, the fold change (FC) in [2] came to 0.01. In [3], the outcome was inactive.

With `CC[N+]1(CC)CCN(c2cccc(C)c2)CC1`, in assay [1], the Activity was less than 10%. Further, the results for the fold change (FC) in assay [1] and in assay [2] were 0.2 and 0.001, respectively. For the same compound, the result in assay [3] was inactive.

With `CCN1CCN(c2cccc(Cl)c2)CC1`, in [1], the Activity was less than 10% and the fold change (FC) stood at 0.1. The fold change (FC) in assay [2] came out at 0.009. Also, the outcome in assay [3] was inactive.

On to `CCN1CCN(c2ccc(C(F)(F)F)cc2)CC1`, for which, in [1], the Activity was less than 10% and the fold change (FC) stood at 1.4. Moreover, the fold change (FC) in assay [2] was 0. Also, the result in assay [3] was inactive.

Take `CC[N+]1(CC)CCN(c2ccc(OC)cc2)CC1`: in assay [1], the Activity is less than 10% and the fold change (FC) was determined as 11.6. Besides, the fold change (FC) in [2] was 0.063. In assay [3], the outcome was inactive.
